According to patent US10975087B2, “Solid forms of tetrahydropyranyl amino-pyrrolopyrimidinone compounds” (ArQule, Inc., priority 2018, dated 2021):
Values after ≈ are worked out from the molar mass of the structure shown. Where two headings read alike, the source gives them in different places.

Columns and labels:
Assay type in all cases: physicochemical
[1] = Thermodynamic solubility pH measurements; conditions: for Solubility (mg/mL) / Solubility: 48 hours
Protocol: After 2 hours at 25° C., the pH of each slurry was measured and the pH was adjusted, where required. After 24 hours at 25° C., the pH of each slurry was measured and the pH was adjusted, where required. After 48 hours at 25° C., the slurries were separated by centrifugation. The solids were analyzed by XRPD, while the pH of the separated liquors were also measured.

Competitive slurrying = conditions: for Form (competitive slurrying result) / form observed after competitive slurrying (XRPD): ca. 48 hours; for Form (competitive slurrying result): XRPD; for form observed after competitive slurrying (XRPD): ambient and 50° C., acetone, ethanol, acetonitrile
Protocol: Approximately 5 mg of each form (Form 1 and Form 4, Form 1 and Form 8, and Form 4 and Form 8) was weighed and agitated at ambient and 50° C. in minimal acetone, ethanol, diisopropyl ether (DIPE) and acetonitrile. Approximately 8 drops of each solvent was added and the samples were then agitated for ca. 48 hours, before being analyzed by XRPD. Table 9 details the conditions.

[2] = 7 day stability testing, open vials at 40° C./75% RH, ambient and 80° C.; conditions: for Purity after 1 week (%) / area % purity and form changes after 1 week: open vials; for T = 0 purity (%): T = 0, before storage; for area % purity and form changes after 1 week: ambient, 40° C./75% RH and 80° C.; for Stability testing: cell wraps: No drop in purity or change in form
Acetone solubility = conditions: for Form: XRPD of damp solid after slurrying in Acetone, *Small amount of material analyzed; for Solubility / solid form after slurrying in acetone (XRPD) / solubility at 24 h: acetone; for solubility at 24 h: organic solvent or mixture, thermodynamic from solid; for Acetone solubility: residual solid: form of residual solid, amorphous input: Form 2 residual solid with additional peaks
Protocol: (§1) Aqueous and acetone solubility was carried out using 3-10 mg of material, depending on availability, and slurrying in 150-200 μL of acetone or 300 μL of deionized water. The samples were agitated at ambient temperature then filtered by centrifugation (0.22 μm nylon filter) after ca. 24 hours and the solids analyzed by XRPD as damp solids. The filtrates were analyzed by HPLC for concentration determination. The water solubility was too low for detection using the current analytical method.

[3] = Gravimetric vapor sorption (GVS); conditions: for Post-GVS analysis (form): after exposure to elevated humidity; for XRPD post GVS: cell wraps: Remained | unchanged; for GVS (hygroscopicity): summary Table 11
Protocol: Approximately 10-20 mg of sample was placed into a mesh vapor sorption balance pan and loaded into an IGASorp Moisture Sorption Analyzer balance by Hiden Analytical. The sample was subjected to a ramping profile from 40-90% relative humidity (RH) at 10% increments, maintaining the sample at each step until a stable weight had been achieved (98% step completion). After completion of the sorption cycle, the sample was dried using the same procedure to 0% RH, and finally taken back to the starting point of 40% RH. Two cycles were performed. The weight change during the sorption/desorption cycles were plotted, allowing for the hygroscopic nature of the sample to be determined.

[4] = Accelerated stability testing at 40° C./75% RH for 6 months
Protocol: Accelerated stability testing was carried out for Form 1 at 40° C./75% RH for 6 months. […] The water content was measured by KF analysis.

[5] = Long term stability testing at 25° C./60% RH
Protocol: Long term stability testing was carried out for Form 1 at 25° C./60% RH. […] The water content was measured by KF analysis.

Aqueous solubility = conditions: for Solubility (mg/mL): Water; for Form: XRPD of damp solid after slurrying in Water, AXRPD: Amorphous by XRPD, but limited material for analysis; for XRPD post aqueous solubility: amorphous: Form 1 from solubility screen, Form 8: Amorphous, limited material
Protocol: as §1

[6] = ambient temperature, ca. 24 hours
[7] = deionized water, ambient temperature, ca. 24 hours
[8] = summary Table 11, HPLC of filtrate

O=C(c1ccc(Oc2ccccc2)cc1Cl)c1c[nH]c2ncnc(N[C@@H]3CC[C@@H](CO)OC3)c12.O=S(=O)(O)CCS(=O)(=O)O [Edisylate Pattern 1]
pH - 2 Hours at 25° C. ([1]; Input Solvent Water): 2.32
pH - 24 Hours at 25° C. ([1]; Input Solvent Water): 2.18
pH - 48 Hours at 25° C. ([1]; Input Solvent Water): 2.37
Solubility (mg/mL) ([1]; Input Solvent Water, 25° C.): <LOD
pH - 2 Hours at 25° C. ([1]; Input Solvent pH 1): 0.17
pH - 24 Hours at 25° C. ([1]; Input Solvent pH 1): 0.70
pH - 48 Hours at 25° C. ([1]; Input Solvent pH 1): 1.11
Solubility ([1]; Input Solvent pH 1, 25° C.): 0.7 mg/mL
pH - 2 Hours at 25° C. ([1]; Input Solvent pH 4.5): 4.40
pH - 24 Hours at 25° C. ([1]; Input Solvent pH 4.5): 4.29
pH - 48 Hours at 25° C. ([1]; Input Solvent pH 4.5): 4.22
Solubility (mg/mL) ([1]; Input Solvent pH 4.5, 25° C.): <LOD
pH - 2 Hours at 25° C. ([1]; Input Solvent pH 6.5): 6.44
pH - 24 Hours at 25° C. ([1]; Input Solvent pH 6.5): 6.03
pH - 48 Hours at 25° C. ([1]; Input Solvent pH 6.5): 5.68
Solubility ([1]; Input Solvent pH 6.5, 25° C.): <0.1 mg/mL

O=C(c1ccc(Oc2ccccc2)cc1Cl)c1c[nH]c2ncnc(N[C@@H]3CC[C@@H](CO)OC3)c12 [4 and 8]
Form (competitive slurrying result) (Competitive slurrying; DIPE, 50° C.): Form 4
Form (competitive slurrying result) (Competitive slurrying; Ethanol, 50° C.): Form 1
Form (competitive slurrying result) (Competitive slurrying; Ethanol, Ambient): Form 1

O=C(c1ccc(Oc2ccccc2)cc1Cl)c1c[nH]c2ncnc(N[C@@H]3CC[C@@H](CO)OC3)c12 [1 and 8]
Form (competitive slurrying result) (Competitive slurrying; DIPE, 50° C.): Form 1
Form (competitive slurrying result) (Competitive slurrying; Ethanol, 50° C.): Form 1
Form (competitive slurrying result) (Competitive slurrying; Ethanol, Ambient): Form 1

O=C(c1ccc(Oc2ccccc2)cc1Cl)c1c[nH]c2ncnc(N[C@@H]3CC[C@@H](CO)OC3)c12 [1 and 4]
Form (competitive slurrying result) (Competitive slurrying; DIPE, 50° C.): Form 1
Form (competitive slurrying result) (Competitive slurrying; Ethanol, 50° C.): Form 1
Form (competitive slurrying result) (Competitive slurrying; Ethanol, Ambient): Form 1

O=C(c1ccc(Oc2ccccc2)cc1Cl)c1c[nH]c2ncnc(N[C@@H]3CC[C@@H](CO)OC3)c12 [Form 1, (2-chloro-4-phenoxyphenyl)(4-(((3R,6S)-6-(hydroxymethyl)tetrahydro-2H-pyran-3-yl)amino)-7H-pyrrolo[2,3-d]pyrimidin-5-yl)methanone]
Purity after 1 week (%) ([2]; 40° C./75% RH): 99.4%
Purity after 1 week (%) ([2]; 80° C.): 99.4%
Purity after 1 week (%) ([2]; Ambient): 99.3%
T = 0 purity (%) [2]: 99.3%
area % purity and form changes after 1 week [2]: no decrease in area % purity or form changes
Stability testing [2]: No drop in purity
Form (Acetone solubility): Form 2*
Solubility (Acetone solubility; [6]): 12.3 mg/mL (≈ 25.7 mM)
solid form after slurrying in acetone (XRPD) (Acetone solubility; [6]): conversion to Form 2
solubility at 24 h (Acetone solubility; summary Table 11, read-out: Acetone solubility): 12.3 mg/mL (≈ 25.7 mM)
Acetone solubility: residual solid (Acetone solubility): (Form 2 residual
hygroscopic nature by GVS [3]: non-hygroscopic
Post-GVS analysis (form) [3]: remain Form 1
uptake by GVS ([3]; at 90% RH): < 0.2%
XRPD post GVS [3]: Remained
GVS (hygroscopicity) [3]: <0.2% uptake
relative stability of the form (Competitive slurrying; under the conditions assessed): thermodynamically more stable form
Chemical Purity (% Area) ([4]; 0 months): 98.9 % Area
Crystallinity (XRPD) ([4]; 0 months): Form 1
Water Content (KF) (%) ([4]; 0 months): 0.16%
Chemical Purity (% Area) ([4]; 1 month): 98.8 % Area
Water Content (KF) (%) ([4]; 1 month): 0.36%
Chemical Purity (% Area) ([4]; 3 months): 98.8 % Area
Water Content (KF) (%) ([4]; 3 months): 0.53%
Chemical Purity (% Area) ([4]; 6 months): 98.9 % Area
Crystallinity (XRPD) ([4]; 6 months): Form 1
Water Content (KF) (%) ([4]; 6 months): 0.57%
area % purity and form changes, accelerated storage ([4]; 6 months): no decrease in area % purity or form changes
area % purity and form changes, long term storage [5]: no decrease in area % purity or form changes
Chemical Purity (% AUC) ([5]; 0 months): 98.9 % AUC
Crystallinity (XRPD) ([5]; 0 months): Form 1
Water Content (KF) (%) ([5]; 0 months): 0.16%
Chemical Purity (% AUC) ([5]; 1 month): 98.8 % AUC
Water Content (KF) (%) ([5]; 1 month): 0.28%
Chemical Purity (% AUC) ([5]; 3 months): 98.8 % AUC
Water Content (KF) (%) ([5]; 3 months): 0.41%
Chemical Purity (% AUC) ([5]; 6 months): 98.9 % AUC
Crystallinity (XRPD) ([5]; 6 months): Form 1
Water Content (KF) (%) ([5]; 6 months): 0.47%
Chemical Purity (% AUC) ([5]; 9 months): 98.9 % AUC
Water Content (KF) (%) ([5]; 9 months): 0.29%
Chemical Purity (% AUC) ([5]; 12 months): 98.8 % AUC
Crystallinity (XRPD) ([5]; 12 months): Form 1
Water Content (KF) (%) ([5]; 12 months): 0.46%
Chemical Purity (% AUC) ([5]; 18 months): 99.0 % AUC
Water Content (KF) (%) ([5]; 18 months): 0.49%
Chemical Purity (% AUC) ([5]; 24 months): 98.9 % AUC
Crystallinity (XRPD) ([5]; 24 months): Form 1
Water Content (KF) (%) ([5]; 24 months): 0.37%
Solubility (mg/mL) (Aqueous solubility; [6]): API not detected
Form (Aqueous solubility): Form 1
XRPD post aqueous solubility (Aqueous solubility): Form 1
aqueous solubility (Aqueous solubility; [7]): not soluble
aqueous solubility (Aqueous solubility; [8]): API not detected

O=C(c1ccc(Oc2ccccc2)cc1Cl)c1c[nH]c2ncnc(N[C@@H]3CC[C@@H](CO)OC3)c12 [Form 4, (2-chloro-4-phenoxyphenyl)(4-(((3R,6S)-6-(hydroxymethyl)tetrahydro-2H-pyran-3-yl)amino)-7H-pyrrolo[2,3-d]pyrimidin-5-yl)methanone]
Purity after 1 week (%) ([2]; 40° C./75% RH): 98.9%
Purity after 1 week (%) ([2]; 80° C.): 98.9%
Purity after 1 week (%) ([2]; Ambient): 98.9%
T = 0 purity (%) [2]: 98.8%
area % purity and form changes after 1 week [2]: no decrease in area % purity or form changes
Stability testing [2]: No drop in purity
Form (Acetone solubility): Form 1
Solubility (Acetone solubility; [6]): 15.1 mg/mL (≈ 31.5 mM)
solid form after slurrying in acetone (XRPD) (Acetone solubility; [6]): converted to the Form 1 polymorph
Acetone solubility: residual solid (Acetone solubility): (Form 1 residual
Acetone solubility (Acetone solubility; summary Table 11): 15.1 mg/mL
hygroscopic nature by GVS [3]: non-hygroscopic
Post-GVS analysis (form) [3]: remain Form 4
uptake by GVS ([3]; at 90% RH): 0.4%
XRPD post GVS [3]: Remained
GVS (hygroscopicity) [3]: 0.4% uptake
Solubility (mg/mL) (Aqueous solubility; [6]): API not detected
Form (Aqueous solubility): Form 4
XRPD post aqueous solubility (Aqueous solubility): Form 4
aqueous solubility (Aqueous solubility; [7]): not soluble
aqueous solubility (Aqueous solubility; [8]): API not detected

O=C(c1ccc(Oc2ccccc2)cc1Cl)c1c[nH]c2ncnc(N[C@@H]3CC[C@@H](CO)OC3)c12 [Form 11, (2-chloro-4-phenoxyphenyl)(4-(((3R,6S)-6-(hydroxymethyl)tetrahydro-2H-pyran-3-yl)amino)-7H-pyrrolo[2,3-d]pyrimidin-5-yl)methanone]
hygroscopic nature by GVS [3]: non-hygroscopic

O=C(c1ccc(Oc2ccccc2)cc1Cl)c1c[nH]c2ncnc(N[C@@H]3CC[C@@H](CO)OC3)c12 [Form 4 and Form 8]
form observed after competitive slurrying (XRPD) (Competitive slurrying; DIPE): Form 1 and Form 2 mixtures, pure Form 1, pure Form 4 and pure Form 2

O=C(c1ccc(Oc2ccccc2)cc1Cl)c1c[nH]c2ncnc(N[C@@H]3CC[C@@H](CO)OC3)c12 [Form 8, (2-chloro-4-phenoxyphenyl)(4-(((3R,6S)-6-(hydroxymethyl)tetrahydro-2H-pyran-3-yl)amino)-7H-pyrrolo[2,3-d]pyrimidin-5-yl)methanone]
Purity after 1 week (%) ([2]; 40° C./75% RH): 99.0%
Purity after 1 week (%) ([2]; 80° C.): 99.0%
Purity after 1 week (%) ([2]; Ambient): 99.0%
T = 0 purity (%) [2]: 99.0%
area % purity and form changes after 1 week [2]: no decrease in area % purity or form changes
Form (Acetone solubility): Form 2*
solid form after slurrying in acetone (XRPD) (Acetone solubility; [6]): conversion to Form 2
solubility at 24 h (Acetone solubility; Acetone, ambient temperature, ca. 24 hours, read-out: Solubility): 11.5 mg/mL (≈ 24 mM)
Acetone solubility: residual solid (Acetone solubility): (Form 2 residual
Acetone solubility (Acetone solubility; summary Table 11): 11.5 mg/mL
hygroscopic nature by GVS [3]: non-hygroscopic
Post-GVS analysis (form) [3]: remain Form 8
uptake by GVS, first cycle ([3]; at 90% RH, first cycle): < 0.3%
uptake by GVS, second cycle ([3]; at 90% RH, second cycle): 0.8%
XRPD post GVS [3]: Remained
GVS (hygroscopicity) [3]: 0.8% uptake
Solubility (mg/mL) (Aqueous solubility; [6]): API not detected
Form (Aqueous solubility): AXRPD
XRPD post aqueous solubility (Aqueous solubility): Amorphous,
aqueous solubility (Aqueous solubility; [7]): not soluble
aqueous solubility (Aqueous solubility; [8]): API not detected

O=C(c1ccc(Oc2ccccc2)cc1Cl)c1c[nH]c2ncnc(N[C@@H]3CC[C@@H](CO)OC3)c12 [Form 1 and Form 4]
form observed after competitive slurrying (XRPD) (Competitive slurrying; DIPE): Form 1 was the dominant form

O=C(c1ccc(Oc2ccccc2)cc1Cl)c1c[nH]c2ncnc(N[C@@H]3CC[C@@H](CO)OC3)c12 [Form 1 and Form 8]
form observed after competitive slurrying (XRPD) (Competitive slurrying; DIPE): Form 1 was the dominant form
